Laboratory results as given in PubChem BioAssay AID1918958 (Molecular Pharmacology Branch, DTP, NCI, 2023).

System: NCI-H196 complex spheroid viability
Test: Anticancer human tumor NCI-H196 cell line growth inhibition [LSD1];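 also: spheroids exposed to agents for 7 days before readout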;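 as to viability, T/C: 100% = DMSO vehicle control viability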
Details: for IC50: curve of first compound; for viability, T/C: stronger effect = lower value
Summary of the method: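 Multicellular complex spheroids of tumor cells with human endothelial cells (HUVEC) and mesenchymal stem cells; the LSD1 inhibitor iadademstat was combined with standard-of-care or investigational agents. Top concentration at or near clinical Cmax, half-log dilutions; final DMSO ≤0.25%.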

[1] = second compound 0.1 µM, first compound 0.0316 µM
[2] = second compound 0.1 µM, first compound 0.1 µM
[3] = second compound 0.1 µM, first compound 0.316 µM
[4] = second compound 0.1 µM, first compound 1 µM
[5] = second compound 0.316 µM, first compound 0.0316 µM
[6] = second compound 0.316 µM, first compound 0.1 µM
[7] = second compound 0.316 µM, first compound 0.316 µM
[8] = second compound 0.316 µM, first compound 1 µM
[9] = second compound 1 µM, first compound 0.0316 µM
[10] = second compound 1 µM, first compound 0.1 µM
[11] = second compound 1 µM, first compound 0.316 µM
[12] = second compound 1 µM, first compound 1 µM
[13] = second compound 3.16 µM, first compound 0.0316 µM
[14] = second compound 3.16 µM, first compound 0.1 µM
[15] = second compound 3.16 µM, first compound 0.316 µM
[16] = second compound 3.16 µM, first compound 1 µM
[17] = second compound 10 µM, first compound 0.0316 µM
[18] = second compound 10 µM, first compound 0.1 µM
[19] = second compound 10 µM, first compound 0.316 µM
[20] = second compound 10 µM, first compound 1 µM

Structure (SMILES) | IC50 (second compound 0.1 µM) | IC50 (second compound 0.316 µM) | IC50 (second compound 1 µM) | IC50 (second compound 3.16 µM) | IC50 (second compound 10 µM) | viability, T/C [1] | viability, T/C [2] | viability, T/C [3] | viability, T/C [4] | viability, T/C [5] | viability, T/C [6] | viability, T/C [7] | viability, T/C [8] | viability, T/C [9] | viability, T/C [10] | viability, T/C [11] | viability, T/C [12] | viability, T/C [13] | viability, T/C [14] | viability, T/C [15] | other results
COc1ccc([C@@H](O)c2cc(-c3ncnc4cc(N5CCOCC5)ccc34)c(F)cc2Cl)nn1 + NC1CCC(NC2CC2c2ccccc2)CC1 | > 10 µM | > 10 µM | > 10 µM | > 10 µM | > 10 µM | 102% | 99.2% | 88.9% | 81.3% | 103% | 102% | 96.6% | 85.5% | 95.7% | 105% | 93.4% | 90.5% | 103% | 103% | 88.9% | viability, T/C (second compound 0.1 µM, first compound 3.16 µM): 72.7%; viability, T/C (second compound 0.1 µM, first compound 10 µM): 53.7%; viability, T/C (second compound 0.316 µM, first compound 3.16 µM): 73.4%; viability, T/C (second compound 0.316 µM, first compound 10 µM): 54.6%; viability, T/C (second compound 1 µM, first compound 3.16 µM): 76%; viability, T/C (second compound 1 µM, first compound 10 µM): 58%; viability, T/C [16]: 88.9%; viability, T/C (second compound 3.16 µM, first compound 3.16 µM): 69.5%; viability, T/C (second compound 3.16 µM, first compound 10 µM): 54%; viability, T/C [17]: 102%; viability, T/C [18]: 104%; viability, T/C [19]: 89.8%; viability, T/C [20]: 84.2%; viability, T/C (second compound 10 µM, first compound 3.16 µM): 73.3%; viability, T/C (second compound 10 µM, first compound 10 µM): 57%
O=C(C=Cn1cnc(-c2cc(C(F)(F)F)cc(C(F)(F)F)c2)n1)NNc1cnccn1 + NC1CC1c1ccc(-c2cccc(O)c2)cc1 | < 0.00316 µM | < 0.00316 µM | < 0.00316 µM | < 0.00316 µM | < 0.00316 µM | 19.8% | 14.6% | 10.4% | 7.16% | 20.7% | 12.4% | 10.7% | 8.26% | 19.6% | 12.1% | 10.6% | 9.55% | 15.9% | 14% | 10.2% | viability, T/C (second compound 0.1 µM, first compound 0.00316 µM): 32.5%; viability, T/C (second compound 0.1 µM, first compound 0.01 µM): 27.1%; viability, T/C (second compound 0.316 µM, first compound 0.00316 µM): 33.1%; viability, T/C (second compound 0.316 µM, first compound 0.01 µM): 25.6%; viability, T/C (second compound 1 µM, first compound 0.00316 µM): 31.3%; viability, T/C (second compound 1 µM, first compound 0.01 µM): 31.5%; viability, T/C (second compound 3.16 µM, first compound 0.00316 µM): 45.6%; viability, T/C (second compound 3.16 µM, first compound 0.01 µM): 31.5%; viability, T/C [16]: 10.3%; viability, T/C (second compound 10 µM, first compound 0.00316 µM): 36.2%; viability, T/C (second compound 10 µM, first compound 0.01 µM): 29.2%; viability, T/C [17]: 18.3%; viability, T/C [18]: 15.9%; viability, T/C [19]: 12.4%; viability, T/C [20]: 11.9%
